Holding throughout (assay type): physicochemical
The nature of series [1]: Competitive slurry in water (XRPD). Particulars: 50 mg each in 4 mL water, cycled 7 to 10° C. for 4 days, then 10 to 30° C. for 9 days. As to the method:
A suspension of 50 mg 1-(β-D-glucopyranosyl)-4-methyl-3-[5-(4-fluorophenyl)-2-thienylmethyl]benzene form HxA (for example prepared according to the procedure described in example 1 of the present invention) and 50 mg 1-(β-D-glucopyranosyl)-4-methyl-3-[5-(4-fluorophenyl)-2-thienylmethyl]benzene hemihydrate (for example prepared according to the procedure described in example 1 of WO 2008/069327 A1) in 4 mL water was stirred at moderate velocity using a magnetic stirrer. The temperature during the slurry experiment was first cycled between 7 to 10° C. for 4 days changing the temperature every 2 hours. Thereafter the suspension was cycled in the range of 10 to 30° C. for 9 days changing the temperature every 2 hours.

Series [2] is described as follows: Equilibrium aqueous solubility (HPLC). Particulars: for Rel. Solubilities: equilibrium aqueous solubility at 25 ± 1° C., relative to forms HxA/HxB = 100. How it is done:
The aqueous solubilities of 1-(β-D-glucopyranosyl)-4-methyl-3-[5-(4-fluorophenyl)-2-thienylmethyl]benzene forms HxA and HxB of the present invention and the hemihydrate of 1-(β-D-glucopyranosyl)-4-methyl-3-[5-(4-fluorophenyl)-2-thienylmethyl]benzene described in WO 2008/069327 A1 were determined by the equilibrium solubility method. Saturated solutions of 1-(β-D-glucopyranosyl)-4-methyl-3-[5-(4-fluorophenyl)-2-thienylmethyl]benzene, obtained by stirring 50 mg of each crystalline form in 50 mL water were prepared and stirred at 25±1° C. After 60 minutes of stirring, three samples were withdrawn, filtered through 0.45 μm syringe filters and the filtrates were directly analyzed by HPLC. • Column: C18 4.6×150 mm 5 μm • Eluent A: 0.1% formic acid-water solution • Eluent B: 0.1% formic acid-acetonitril solution • Injection vol.: 100 μL • Column Temp.: 25° C. • Wavelength: 220 nm • Pump flow: 1.2 mL/min • Gradient: […]
Using six concentration points of known 1-(β-D-glucopyranosyl)-4-methyl-3-[5-(4-fluorophenyl)-2-thienylmethyl]benzene concentrations a calibration line was fitted by linear regression.

Series [3] in a line: Water content by gravimetric moisture sorption/desorption and TGA. How it is done:
The water values at varying relative humidities were obtained by recording moisture sorption isotherms with a SPS-11 moisture sorption analyzer (MD Messtechnik, Ulm, D). […] The equilibrium condition for each step was set to a mass constancy of ±0.005% over 60 min. The temperature was 25±0.1° C.
Thermogravimetric analysis (TGA) was performed using the following equipment/conditions: Thermogravimetric-system TGA-7, Pyris-Software für Windows NT, (Perkin-Elmer, Norwalk, Conn., USA), Platinum-sample holder (50 μl), Nitrogen as the purge gas (Sample purge: 20 mL/min, balance purge: 40 mL/min). Heating rate: 10 K/min; Heating Range: 25-100° C.;

In the case of `Cc1ccc([C@@H]2O[C@H](CO)[C@@H](O)[C@H](O)[C@H]2O)cc1Cc1ccc(-c2ccc(F)cc2)s1` [form HxA, 1-(β-D-glucopyranosyl)-4-methyl-3-[5-(4-fluorophenyl)-2-thienylmethyl]benzene], the “solid form stability in competitive slurry with hemihydrate” value in series [1] is “does not transform”. The “Rel. Solubilities” value in series [2] is 100%. Further, the “increased aqueous solubility compared to the crystalline hemihydrate of WO 2008/069327 A1” value in series [2] (water, 25.0±1.0° C.) came out at 10%. Besides, the water content result in series [3] (at a RH of about 0%) is reported as “about 0.1%”; in series [3] (at a RH of about 30%) it was “about 3.5%”.

Take `Cc1ccc([C@@H]2O[C@H](CO)[C@@H](O)[C@H](O)[C@H]2O)cc1Cc1ccc(-c2ccc(F)cc2)s1` [form HxB, 1-(β-D-glucopyranosyl)-4-methyl-3-[5-(4-fluorophenyl)-2-thienylmethyl]benzene]: the values for the water content entry in series [3] (at a RH of about 40%) and in series [3] (at a RH of about 95%) were “about 6.4%” and “about 8.0%”, respectively.

For `Cc1ccc([C@@H]2O[C@H](CO)[C@@H](O)[C@H](O)[C@H]2O)cc1Cc1ccc(-c2ccc(F)cc2)s1` [form Hy0.5, 1-(β-D-glucopyranosyl)-4-methyl-3-[5-(4-fluorophenyl)-2-thienylmethyl]benzene hemihydrate, reference compound], the “Rel. Solubilities” value in series [2] (listed as hemihydrate of WO 2008/069327 A1 (=Hy0.5), hemihydrate) was found to be 90%.

These data come from patent US10323056B2, “Crystalline hydrates of 1-(β-D-glucopyranosyl)-4-methyl-3-[5-(4-fluorophenyl)-2-thienylmethyl]benzene” (Lek Pharmaceuticals d.d., priority 2013, dated 2019).
